Reference: ChEMBL document CHEMBL1153873, “Synthesis, antiarrhythmic and anticoagulant activities of novel thiazolo derivatives from methyl 2-(thiazol-2-ylcarbamoyl)acetate” (Eur J Med Chem, 2009)
Activity calls are given as the source filed them. The calls are words filed in the database; no cut-off is given here.

Columns and labels:
Oryctolagus cuniculus [1] = assay: Antithrombotic effect in New Zealand rabbit assessed as incidence of complete arterial occlusion at 3 mg/kg, po relative to control; format: functional
[2] = Toxicity in rat; format: organism-based; conditions: in vivo
Oryctolagus cuniculus [3] = species: Oryctolagus cuniculus; assay: Stimulation of antithrombin-3-induced inhibition of alpha-thrombin in rabbit plasma assessed as [125I]-thrombin-antithrombin-3 complex formation by SDS-PAGE and autoradiography; format: cell-free
Plasma [4] = assay: Anticoagulant activity in human plasma assessed as increase in activated partial thromboplastin time; format: functional, cell-free
Homo sapiens [5] = species: Homo sapiens; assay: Stimulation of antithrombin-3-induced inhibition of human alpha-thrombin at 0.2 to 2000 ug/mL
Oryctolagus cuniculus [6] = species: Oryctolagus cuniculus; assay: Stimulation of heparin cofactor-2-induced inhibition of alpha-thrombin in rabbit plasma assessed as [125I]-thrombin-heparin cofactor-2 complex formation by SDS-PAGE and autoradiography; format: cell-free
Oryctolagus cuniculus [7] = assay: Anticoagulant activity in New Zealand rabbit assessed as increase in activated partial thromboplastin time at 1 mg/kg, po after 8 hrs; format: functional, organism-based; set-up: dose 1 mg/kg
Oryctolagus cuniculus [8] = assay: Antithrombotic effect in New Zealand rabbit assessed as time duration to occlusion at 3 mg/kg, po relative to control; format: functional
Oryctolagus cuniculus [9] = assay: Effect on blood pressure in New Zealand rabbit assessed arterial blood pressure at 1 mg/kg, iv after 2 hrs; format: functional
Homo sapiens [10] = species: Homo sapiens; assay: Stimulation of heparin cofactor-2-induced inhibition of human alpha-thrombin
Oryctolagus cuniculus [11] = assay: Anticoagulant activity in New Zealand rabbit assessed as increase in activated partial thromboplastin time at 1 mg/kg, po after 4 hrs relative to untreated control; format: functional
Oryctolagus cuniculus [12] = assay: Anticoagulant activity in New Zealand rabbit assessed as increase in activated partial thromboplastin time at 1 mg/kg, iv relative to untreated control; format: functional
Oryctolagus cuniculus [13] = assay: Anticoagulant activity in New Zealand rabbit assessed as increase in activated partial thromboplastin time at 1 mg/kg, iv after 120 mins; format: functional, organism-based; set-up: dose 1 mg/kg
Plasma [14] = assay: Anticoagulant activity in rabbit plasma assessed as increase in activated partial thromboplastin time; format: functional, cell-free; conditions: Oryctolagus cuniculus
Oryctolagus cuniculus [15] = assay: Increase in bleeding time in New Zealand rabbit at 1 mg/kg, po relative to control; format: organism-based; set-up: dose 1 mg/kg, route oral; conditions: in vivo
Rattus norvegicus = assay: Antiarrhythmic activity in Ivanovas rat assessed as increase LD100 at 5 mg/kg, iv administered 5 mins before aconitine infusion; format: functional, Heart

| Structure (SMILES) | Activity (Oryctolagus cuniculus [1]) [%] | LD50 [2] [mg/kg] | Activity (Oryctolagus cuniculus [3]) | Activity (Plasma [4]) | Activity (Homo sapiens [5]) | Activity (Oryctolagus cuniculus [6]) | Activity (Oryctolagus cuniculus [7]) | fold change (FC) (Oryctolagus cuniculus [8]) | Activity (Oryctolagus cuniculus [9]) [mmHg] | inhibition (Homo sapiens [10]) | fold change (FC) (Oryctolagus cuniculus [11]) | fold change (FC) (Oryctolagus cuniculus [12]) | Activity (Oryctolagus cuniculus [13]) | Activity (Plasma [14]) | fold change (FC) (Oryctolagus cuniculus [15]) | Activity (Rattus norvegicus) [%] |
| --- | --- | --- | --- | --- | --- | --- | --- | --- | --- | --- | --- | --- | --- | --- | --- | --- |
| O=C(CC(=O)NN1C(=O)c2ccc3c4c(ccc(c24)C1=O)C(=O)N(NC(=O)CC(=O)Nc1nccs1)C3=O)Nc1nccs1 | 24.57 | 445 | inactive | Dose-dependent effect | inactive | Active | Active | 12 | 67.4 | Active | 3 | 7 | Active | Dose-dependent effect | 4.33 | 85 |
| COC(=O)/C(C(=O)Nc1nccs1)=C(/S)Nc1ccccc1 | – | 543 | inactive | – | inactive | Active | – | – | – | – | – | – | – | – | – | 80.2 |
| O=C(CC(=O)NN1C(=O)c2c(Cl)c(Cl)c(Cl)c(Cl)c2C1=O)Nc1nccs1 | – | 443 | inactive | – | inactive | Active | – | – | – | – | – | – | – | – | – | 87.1 |
| CCOC(=O)C1=NN(c2ccc(Cl)cc2)/C(=C(/C(=O)Nc2nccs2)C(=O)OC)S1 | – | 435 | inactive | – | inactive | Active | – | – | – | – | – | – | – | – | – | 84 |
| CCOC(=O)c1nn(-c2ccc(Br)cc2)/c(=N/NC(=O)CC(=O)Nc2nccs2)s1 | – | 342 | inactive | – | inactive | Active | – | – | – | – | – | – | – | – | – | 80.1 |
| CC(=O)c1nn(-c2ccc(S(N)(=O)=O)cc2)/c(=N/NC(=O)CC(=O)Nc2nccs2)s1 | – | 546 | inactive | – | inactive | Active | – | – | – | – | – | – | – | – | – | 85 |
| NNC(=O)CC(=O)Nc1nccs1 | – | 736 | inactive | – | inactive | Active | – | – | – | – | – | – | – | – | – | 87.5 |
| COC(=O)/C(C(=O)Nc1nccs1)=C1/SC=C(c2ccccc2)N1c1ccccc1 | – | 724 | inactive | – | inactive | Active | – | – | – | – | – | – | – | – | – | 88 |
| O=C(CC(=O)Nn1c(=O)c2cc3c(=O)n(NC(=O)CC(=O)Nc4nccs4)c(=O)c3cc2c1=O)Nc1nccs1 | 42.85 | 336 | inactive | Dose-dependent effect | inactive | Active | Active | 10 | 68.12 | Active | 2 | 4 | Active | Dose-dependent effect | 3.28 | 86 |
| COC(=O)/C(C(=O)Nc1nccs1)=C1/SC(C(C)=O)=NN1c1ccc(S(N)(=O)=O)cc1 | – | 456 | inactive | – | inactive | Active | – | – | – | – | – | – | – | – | – | 90.9 |
| O=C(CC(=O)Nn1c(-c2ccccc2)csc1=S)Nc1nccs1 | – | 292 | inactive | – | inactive | Active | – | – | – | – | – | – | – | – | – | 90.6 |
| COC(=O)/C(C(=O)Nc1nccs1)=C1/SCC(=O)N1c1ccccc1 | – | 444 | inactive | – | inactive | Active | – | – | – | – | – | – | – | – | – | 83 |
| O=C(CC(=O)Nc1nccs1)NNC(=S)[S-].[K+] [HYDRAZINECARBODITHIONIC ACID POTASSIUM SALT] | – | 723 | inactive | – | inactive | Active | – | – | – | – | – | – | – | – | – | 90.15 |
| COC(=O)/C(C(=O)Nc1nccs1)=C1/SC(C(C)=O)=NN1c1ccc(S(=O)(=O)N2C(=O)c3c(Cl)c(Cl)c(Cl)c(Cl)c3C2=O)cc1 | – | 564 | inactive | – | inactive | Active | – | – | – | – | – | – | – | – | – | 88 |
| COC(=O)/C(C(=O)Nc1nccs1)=C1/SC=C(C)N1c1ccccc1 | – | 434 | inactive | – | inactive | Active | – | – | – | – | – | – | – | – | – | 90.3 |
| COC(=O)/C(C(=O)Nc1nccs1)=C1/SC(C(C)=O)=C(C)N1c1ccccc1 | – | 674 | inactive | – | inactive | Active | – | – | – | – | – | – | – | – | – | 88.8 |
